Columns and labels:
[1] = target: T1, Amine oxidase [flavin-containing] A (Homo sapiens, UniProt P21397); assay: Inhibition of human recombinant MAO-A expressed in baculovirus infected insect cell microsomes assessed as p-tyramine conversion to resorufin and H2O2 at 60 uM after 15 mins by fluorimetric assay; details: 0.25 h
T1 sequence (P21397 whole entry): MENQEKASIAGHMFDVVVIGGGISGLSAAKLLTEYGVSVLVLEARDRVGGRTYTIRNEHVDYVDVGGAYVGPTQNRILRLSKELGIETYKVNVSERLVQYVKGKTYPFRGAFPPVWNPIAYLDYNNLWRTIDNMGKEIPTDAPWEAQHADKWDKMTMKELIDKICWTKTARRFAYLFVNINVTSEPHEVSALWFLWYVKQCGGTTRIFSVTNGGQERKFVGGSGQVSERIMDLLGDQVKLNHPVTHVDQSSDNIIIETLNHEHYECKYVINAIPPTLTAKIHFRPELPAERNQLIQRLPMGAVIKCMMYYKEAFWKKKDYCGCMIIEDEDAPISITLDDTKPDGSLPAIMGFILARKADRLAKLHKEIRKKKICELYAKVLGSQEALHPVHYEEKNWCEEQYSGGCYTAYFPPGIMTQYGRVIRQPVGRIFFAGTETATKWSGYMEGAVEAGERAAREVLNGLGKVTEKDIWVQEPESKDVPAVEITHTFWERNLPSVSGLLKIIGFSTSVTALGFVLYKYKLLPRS

[2] = target: T2, Amine oxidase [flavin-containing] B (Homo sapiens, UniProt P27338); assay: Inhibition of human recombinant MAO-B expressed in baculovirus infected insect cell microsomes assessed as p-tyramine conversion to resorufin and H2O2 at 60 uM after 15 mins by fluorimetric assay; details: 0.25 h
T2 sequence (P27338 whole entry): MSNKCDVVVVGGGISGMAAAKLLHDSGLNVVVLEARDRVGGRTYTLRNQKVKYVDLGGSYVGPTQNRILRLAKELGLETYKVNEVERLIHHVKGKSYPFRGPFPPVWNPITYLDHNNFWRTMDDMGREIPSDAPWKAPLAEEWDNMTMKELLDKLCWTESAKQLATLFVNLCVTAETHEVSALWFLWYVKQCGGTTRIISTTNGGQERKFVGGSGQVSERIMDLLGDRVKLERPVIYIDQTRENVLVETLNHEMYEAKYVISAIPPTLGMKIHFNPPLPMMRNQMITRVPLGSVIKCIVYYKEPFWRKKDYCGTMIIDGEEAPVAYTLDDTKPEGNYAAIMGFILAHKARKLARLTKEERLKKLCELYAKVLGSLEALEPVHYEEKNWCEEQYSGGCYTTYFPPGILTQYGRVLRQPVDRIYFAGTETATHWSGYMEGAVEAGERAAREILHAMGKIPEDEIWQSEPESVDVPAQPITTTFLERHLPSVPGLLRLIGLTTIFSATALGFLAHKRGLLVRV

Homo sapiens = organism: Homo sapiens; assay: Selectivity index, ratio of IC50 for human recombinant MAO-A to IC50 for human recombinant MAO-B
[3] = target: T2, Amine oxidase [flavin-containing] B; assay: Inhibition of human recombinant MAO-B expressed in baculovirus infected insect cell microsomes assessed as p-tyramine conversion to resorufin and H2O2 after 15 mins by fluorimetric assay
[4] = target: T1, Amine oxidase [flavin-containing] A; assay: Inhibition of human recombinant MAO-A expressed in baculovirus infected insect cell microsomes assessed as p-tyramine conversion to resorufin and H2O2 after 15 mins by fluorimetric assay

| Structure (SMILES) | inhibition (INH) [1] | inhibition (INH) [2] | Ratio IC50 (Homo sapiens) | IC50 [3] | IC50 [4] |
| --- | --- | --- | --- | --- | --- |
| O=C(c1cc2ccccc2oc1=O)N(c1ccccc1)c1ccccc1 | Not Active | Not Active |  |  |  |
| O=C(c1cc2cc(Br)cc(Br)c2oc1=O)N(c1ccccc1)c1ccccc1 | Not Active | Not Active |  |  |  |
| O=C(NCCCN1CCOCC1)c1cc2cc([N+](=O)[O-])ccc2oc1=O | Not Active |  | 1.3 | 46.1 µM |  |
| Cc1ccccc1NC(=O)c1cc2ccccc2oc1=O | Not Active |  | 20.3 | 2.96 µM |  |
| Cc1ccccc1NC(=O)c1cc2cc(Br)cc(Br)c2oc1=O | Not Active |  | 12.8 | 4.68 µM |  |
| Cc1cccc(NC(=O)c2cc3ccccc3oc2=O)c1 | Not Active |  |  |  |  |
| COc1ccccc1NC(=O)c1cc2ccccc2oc1=O | Not Active |  | 1.7 | 35.4 µM |  |
| O=C(Nc1cccc(C(F)(F)F)c1)c1cc2cc([N+](=O)[O-])ccc2oc1=O | Not Active |  | 2.6 | 22.8 µM |  |
| O=C(Nc1cccc(C(F)(F)F)c1)c1cc2cc(Br)cc(Br)c2oc1=O | Not Active |  | 8.46 | 7.09 µM |  |
| COc1ccccc1NC(=O)c1cc2cc([N+](=O)[O-])ccc2oc1=O | Not Active |  | 1.2 | 50 µM |  |
| CCCCCCN(CCCCCC)C(=O)c1cc2ccccc2oc1=O |  |  | 1.8 | 8.05 µM | 14.2 µM |
| O=C(Nc1cccc(C(F)(F)F)c1)c1cc2ccccc2oc1=O | Not Active |  |  |  |  |
| CC(C)(C)NC(=O)c1cc2cc(Br)cc(Br)c2oc1=O |  |  | 2.1 | 14.7 µM | 31.5 µM |
| Cc1cccc(NC(=O)c2cc3cc(Br)cc(Br)c3oc2=O)c1 | Not Active |  | 2.78 | 21.5 µM |  |
| O=C(NCCCN1CCOCC1)c1cc2cc(Br)cc(Br)c2oc1=O |  |  | 3.1 | 10.6 µM | 32.4 µM |
| Cc1ccccc1NC(=O)c1cc2cc([N+](=O)[O-])ccc2oc1=O | Not Active |  | 2 | 29.4 µM |  |
| O=C(NCCCN1CCOCC1)c1cc2ccccc2oc1=O |  |  | 3.1 | 13.5 µM | 42.3 µM |
| Cc1cccc(NC(=O)c2cc3cc([N+](=O)[O-])ccc3oc2=O)c1 | Not Active |  | 1.5 | 39.1 µM |  |
| COc1ccccc1NC(=O)c1cc2cc(Br)cc(Br)c2oc1=O | Not Active |  | 2.97 | 20.2 µM |  |
| CCC(C)NC(=O)c1cc2cc([N+](=O)[O-])ccc2oc1=O (centres undefined) |  |  | 1.97 | 19.1 µM | 37.5 µM |
